In brackets after ≈: the same amount, converted by molar mass. Activity calls are given as the source filed them. The rule behind the calls is not given here.
Experiments:
[1] = Physiological stability of the compound at pH 4.5 assessed as compound remaining after 8 hrs in presence of 20% acetonitrile; format: physicochemical; conditions: read-out: Stability
[2] = Solubility of the compound in simulated intestinal fluid; format: physicochemical
[3] = Genotoxicity in Salmonella Typhimurium by Ames test; format: toxicity; conditions: salmonella enterica subsp. enterica serovar typhimurium
[4] = Physiological stability of the compound at pH 4.5 assessed as compound remaining after 20 hrs in presence of 20% acetonitrile; format: physicochemical; conditions: read-out: Stability
Rattus norvegicus [5] = assay: Inhibition of leukocytes rolling flux in acute intravital microscopy model of Sprague-Dawley rat cremasteric postcapillary venules at 15 mg/kg, po after 35 mins relative to control; format: functional
[6] = Physiological stability of the compound at pH 6.6 assessed as compound remaining after 20 hrs in presence of 20% acetonitrile; format: physicochemical; conditions: read-out: Stability
Mus musculus [7] = assay: Dose normalized AUC in C57B6 mouse measured per mg of plasma at 2 mg/kg, iv and 10 mg/kg, po; format: ADME, organism-based; conditions: in vivo
[8] = Physiological stability of the compound at pH 9 assessed as compound remaining after 4 hrs in presence of 20% acetonitrile; format: physicochemical; conditions: read-out: Stability
[9] = Physiological stability of the compound in simulated intestinal fluid assessed as compound remaining after 12 hrs in presence of 20% acetonitrile; format: physicochemical; conditions: read-out: Stability
Papio anubis = assay: Antithrombotic activity in Baboon deep vein thrombosis model assessed as vein opening at 1 mg/kg, po; format: functional, organism-based; parameters: dose 1 mg/kg
[10] = Physiological stability of the compound at pH 4.5 assessed as compound remaining after 16 hrs in presence of 20% acetonitrile; format: physicochemical; conditions: read-out: Stability
[11] = Physiological stability of the compound at pH 9 assessed as compound remaining after 24 hrs in presence of 20% acetonitrile; format: physicochemical; conditions: read-out: Stability
[12] = Physiological stability of the compound at pH 1 assessed as compound remaining after 4 hrs in presence of 20% acetonitrile; format: physicochemical; conditions: read-out: Stability
[13] = Aqueous solubility of the compound at pH 9; format: physicochemical; conditions: aqueous solution, read-out: solubility
[14] = Physiological stability of the compound at pH 1 assessed as compound remaining after 16 hrs in presence of 20% acetonitrile; format: physicochemical; conditions: read-out: Stability
[15] = Physiological stability of the compound at pH 4.5 assessed as compound remaining after 24 hrs in presence of 20% acetonitrile; format: physicochemical; conditions: read-out: Stability
[16] = Physiological stability of the compound in simulated intestinal fluid assessed as compound remaining after 16 hrs in presence of 20% acetonitrile; format: physicochemical; conditions: read-out: Stability
[17] = Aqueous solubility of the compound at pH 7.4; format: physicochemical; conditions: aqueous solution, read-out: solubility
[18] = Physiological stability of the compound at pH 1 assessed as compound remaining after 12 hrs in presence of 20% acetonitrile; format: physicochemical; conditions: read-out: Stability
[19] = Physiological stability of the compound in simulated intestinal fluid assessed as compound remaining after 20 hrs in presence of 20% acetonitrile; format: physicochemical; conditions: read-out: Stability
[20] = Oral bioavailability in Sprague-Dawley rat at 10 mg/kg; format: ADME, organism-based; conditions: in vivo
Rattus norvegicus [21] = assay: Inhibition of leukocytes rolling flux in acute intravital microscopy model of Sprague-Dawley rat cremasteric postcapillary venules at 3 mg/kg, po after 35 mins relative to control; format: functional
[22] = Half life in Sprague-Dawley rat liver microsomes; format: ADME, Microsome
[23] = Physiological stability of the compound in simulated intestinal bile salts-lecithin mixture fluid assessed as compound remaining after 20 hrs in presence of 20% acetonitrile; format: physicochemical; conditions: read-out: Stability
[24] = Physiological stability of the compound at pH 4.5 assessed as compound remaining after 4 hrs in presence of 20% acetonitrile; format: physicochemical; conditions: read-out: Stability
[25] = biological target: Voltage-gated inwardly rectifying potassium channel KCNH2 (Homo sapiens, UniProt Q12809); assay: Inhibition of human ERG
Plasma = assay: Drug level in Sprague-Dawley rat plasma at 30 mg/kg, po; format: ADME, organism-based; parameters: dose 30 mg/kg, route oral; conditions: in vivo
[26] = Physiological stability of the compound at pH 6.6 assessed as compound remaining after 24 hrs in presence of 20% acetonitrile; format: physicochemical; conditions: read-out: Stability
[27] = Physiological stability of the compound at pH 7.4 assessed as compound remaining after 24 hrs in presence of 20% acetonitrile; format: physicochemical; conditions: read-out: Stability
[28] = Physiological stability of the compound at pH 7.4 assessed as compound remaining after 12 hrs in presence of 20% acetonitrile; format: physicochemical; conditions: read-out: Stability
[29] = Physiological stability of the compound in simulated intestinal bile salts-lecithin mixture fluid assessed as compound remaining after 16 hrs in presence of 20% acetonitrile; format: physicochemical; conditions: read-out: Stability
[30] = Permeability from apical to basolateral side in human Caco-2 cells; format: ADME, cell-based
Rattus norvegicus [31] = assay: Dose normalized AUC in Sprague-Dawley rat measured per mg of plasma at 3 mg/kg, iv and 10 mg/kg, po; format: ADME, organism-based; conditions: in vivo
Cynomolgus monkey = assay: Dose normalized AUC in cynomolgus monkey measured per mg of plasma at 5 mg/kg, iv and po; format: ADME, organism-based, Macaca fascicularis; parameters: dose 5 mg/kg, route oral; conditions: in vivo
[32] = Oral bioavailability in C57B6 mouse at 10 mg/kg; format: ADME, organism-based; conditions: in vivo
[33] = Physiological stability of the compound at pH 7.4 assessed as compound remaining after 4 hrs in presence of 20% acetonitrile; format: physicochemical; conditions: read-out: Stability
[34] = Physiological stability of the compound at pH 6.6 assessed as compound remaining after 16 hrs in presence of 20% acetonitrile; format: physicochemical; conditions: read-out: Stability
Canis familiaris = assay: Dose normalized AUC in Beagle dog measured per mg of plasma at 2 mg/kg, iv and 10 mg/kg, po; format: ADME, organism-based, Canis lupus familiaris; conditions: in vivo
[35] = Physiological stability of the compound at pH 6.6 assessed as compound remaining after 4 hrs in presence of 20% acetonitrile; format: physicochemical; conditions: read-out: Stability
[36] = Physiological stability of the compound in simulated intestinal bile salts-lecithin mixture fluid assessed as compound remaining after 4 hrs in presence of 20% acetonitrile; format: physicochemical; conditions: read-out: Stability
Mus musculus [37] = assay: Reduction of leukocytes rolling flux in acute intravital microscopy model of C57B6 mouse cremasteric postcapillary venules at 50 mg/kg, po after 35 mins relative to control; format: functional; parameters: scale not given: the % may be the effect or the level left
[38] = Physiological stability of the compound at pH 9 assessed as compound remaining after 16 hrs in presence of 20% acetonitrile; format: physicochemical; conditions: read-out: Stability
[39] = Half life in human liver microsomes; format: ADME, Microsome
[40] = Half life in cynomolgus monkey liver microsomes; format: ADME, Macaca fascicularis, Microsome
[41] = Clearance in C57B6 mouse at 2 mg/kg, iv and 10 mg/kg, po; format: ADME, organism-based; conditions: in vivo
[42] = Clearance in Sprague-Dawley rat at 3 mg/kg, iv and 10 mg/kg, po; format: ADME, organism-based; conditions: in vivo

Sequence of Voltage-gated inwardly rectifying potassium channel KCNH2 (Q12809 whole entry): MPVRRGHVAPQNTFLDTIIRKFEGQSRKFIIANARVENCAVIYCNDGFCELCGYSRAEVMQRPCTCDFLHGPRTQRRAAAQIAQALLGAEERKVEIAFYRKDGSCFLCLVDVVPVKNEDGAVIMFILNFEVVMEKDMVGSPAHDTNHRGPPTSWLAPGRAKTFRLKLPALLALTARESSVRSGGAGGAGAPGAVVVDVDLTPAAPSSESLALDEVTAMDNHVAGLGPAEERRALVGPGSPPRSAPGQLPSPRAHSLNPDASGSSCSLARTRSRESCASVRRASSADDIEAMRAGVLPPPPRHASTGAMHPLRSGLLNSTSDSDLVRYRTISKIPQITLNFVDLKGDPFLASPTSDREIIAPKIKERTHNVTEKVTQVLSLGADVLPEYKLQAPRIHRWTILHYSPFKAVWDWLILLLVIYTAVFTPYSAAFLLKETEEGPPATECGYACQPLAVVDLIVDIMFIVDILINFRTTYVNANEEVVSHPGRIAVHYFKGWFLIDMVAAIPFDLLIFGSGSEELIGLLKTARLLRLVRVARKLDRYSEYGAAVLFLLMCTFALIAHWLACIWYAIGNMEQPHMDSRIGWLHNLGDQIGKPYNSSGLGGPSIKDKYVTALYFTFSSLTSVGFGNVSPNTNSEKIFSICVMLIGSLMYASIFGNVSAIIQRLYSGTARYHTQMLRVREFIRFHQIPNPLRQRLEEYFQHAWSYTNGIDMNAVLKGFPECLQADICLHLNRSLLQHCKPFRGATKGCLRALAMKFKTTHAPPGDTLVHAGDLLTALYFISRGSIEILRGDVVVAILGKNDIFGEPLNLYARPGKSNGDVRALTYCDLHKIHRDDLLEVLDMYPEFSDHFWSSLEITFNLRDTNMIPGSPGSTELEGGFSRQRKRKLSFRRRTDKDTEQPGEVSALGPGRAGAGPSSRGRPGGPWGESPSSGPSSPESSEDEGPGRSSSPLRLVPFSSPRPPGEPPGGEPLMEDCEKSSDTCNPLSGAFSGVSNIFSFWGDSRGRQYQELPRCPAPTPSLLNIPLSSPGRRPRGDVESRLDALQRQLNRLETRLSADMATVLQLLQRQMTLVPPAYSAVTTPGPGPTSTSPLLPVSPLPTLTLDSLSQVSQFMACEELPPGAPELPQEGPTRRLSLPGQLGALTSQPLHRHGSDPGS

For O=C(O)c1c(O)c(C2(c3ccc(Cl)cc3)CC2)nc2c(C(F)(F)F)cccc12, the remaining at 8 h [1] was 102%, the solubility [2] was 3950 µg/mL (≈ 9690 µM) and the Activity [3] was “Non-toxic”. For the same compound, the remaining at 20 h [4] was 100%, the inhibition in vivo at 15 mg/kg (Rattus norvegicus [5]) was 51% and the remaining at 20 h [6] was 102%. The AUC (Mus musculus [7]) was 1505 ng·h/mL, the remaining at 4 h [8] was 98.5% and the remaining at 12 h [9] was 101%. For the same compound, the Activity (Papio anubis) was “Active”, the remaining at 16 h [10] was 101% and the remaining at 24 h [11] was 99.6%. The remaining at 4 h [12] was 101%, the solubility [13] was 1070 µg/mL (≈ 2630 µM) and the remaining at 16 h [14] was 102%. For the same compound, the remaining at 24 h [15] was 102%, the remaining at 16 h [16] was 101% and the solubility [17] was 165 µg/mL (≈ 405 µM). It also gave a remaining at 12 h [18] of 102%, a remaining at 20 h [19] of 99.4% and a bioavailability [20] of 67%. It also gave an inhibition in vivo at 3 mg/kg (Rattus norvegicus [21]) of 12%, a half-life [22] of over 1 h and a remaining at 20 h [23] of 103%. The remaining at 4 h [24] was 102%, the “inhibition (INH)” value [25] was “Not Active” and the Cp (Plasma) was 38000 ng/mL. It also gave a remaining at 24 h [26] of 104%, a remaining at 24 h [27] of 103% and a remaining at 12 h [28] of 102%. It also gave a remaining at 16 h [29] of 102%, a Papp A→B [30] of 5.1 ×10⁻⁶ cm/s and an AUC (Rattus norvegicus [31]) of 21000 ng·h/mL. The AUC (Cynomolgus monkey) was 84620 ng·h/mL, the bioavailability [32] was 67% and the remaining at 4 h [33] was 102%. For the same compound, the remaining at 16 h [34] was 103%, the AUC (Canis familiaris) was 28862 ng·h/mL and the remaining at 4 h [35] was 102%. The remaining at 4 h [36] was 102%, the Activity (Mus musculus [37]) was 69% and the remaining at 16 h [38] was 98.7%. For the same compound, the half-life [39] was over 1 h, the half-life [40] was over 1 h and the clearance [41] was 7 mL/min/kg. It also gave a clearance [42] of 0.7 mL/min/kg.

From ChEMBL document CHEMBL1212936, “Discovery of 2-[1-(4-chlorophenyl)cyclopropyl]-3-hydroxy-8-(trifluoromethyl)quinoline-4-carboxylic acid (PSI-421), a P-selectin inhibitor with improved pharmacokinetic properties and oral efficacy in models of vascular injury” (J Med Chem, 2010)
